Results published in patent publication US10501482B2, “Compounds for treating spinal muscular atrophy” (Hoffmann-La Roche Inc., priority 2013, dated 2019).
Where a name gives a salt, the structure may show the parent alone.

Key:
[1] = tested on: full length SMN2 minigene mRNA (FL SMN2mini) in HEK293H cells stably transfected with the SMN2-A minigene construct; test: SMN2 minigene mRNA splicing RT-qPCR assay in cultured cells; format: cell-based; settings: Homo sapiens, HEK293-H, 24 hours, 7-point concentration curve, concentration giving 1.5-fold FL SMN2mini mRNA vs vehicle, read-out: EC1.5x minigene (EC1.5x concentration for production of full length SMN2 minigene mRNA)
Summary of the method: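 Stably transfected HEK293H cells, 10,000/well in DMEM/10% FBS with hygromycin, attached 6 h, then received compound for 24 h at 37° C in duplicate at 7 concentrations. Multiplex RT-qPCR with GAPDH used primers that detect only the minigene. An efficiency-corrected ΔΔCt, GAPDH- and vehicle-normalized, gave EC1.5x concentrations.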

SMN protein = SMN protein assay (HTRF) in cultured SMA patient fibroblast cells; format: cell-based; settings: SMA Type 1 human fibroblasts GM03813, 48 hours; for EC1.5x SMN protein (EC1.5x concentration for SMN protein expression): 7-point concentration curve, concentration giving 1.5 times SMN protein vs vehicle; for max. fold increase (maximum fold increase of SMN protein): 7-point concentration data, fold vs vehicle control
Summary of the method: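 SMA patient fibroblasts seeded at 5,000 cells/well, treated 48 h at 37 °C in triplicate per concentration (7-point series). Lysed in RIPA with protease inhibitors; SMN read by HTRF (anti-SMN d2/kryptate, overnight RT), 665/620 nm ratio. ΔF vs blank, expressed as fold over vehicle; EC1.5x and maximum fold increase derived.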

SMILES	EC (1.5-fold) [1]	EC1.5x SMN protein (EC1.5x concentration for SMN protein expression) (SMN protein)	max. fold increase (maximum fold increase of SMN protein) (SMN protein)
Cc1cn2cc(NC(=O)c3ccc(N4CCNCC4)cc3F)cc(C(F)(F)F)c2n1 [Example 59, 2-fluoro-N-(2-methyl-8-(trifluoromethyl)-imidazo[1,2-a]-pyridin-6-yl)-4-(piperazin-1-yl)-benzamide]	0.109 µM	0.2749 µM	1.7116
Cc1cn2cc(NC(=O)c3ccc(N4CCN(C)CC4)nc3)cc(F)c2n1 [Example 32, N-(8-fluoro-2-methylimidazo-[1,2-a]pyridin-6-yl)-6-(4-methyl-piperazin-1-yl)-nicotinamide]	0.0938 µM	0.2028 µM	1.7579
Cc1nc2c(F)cc(NC(=O)c3ccc(N4CCN5CCC[C@H]5C4)nc3)cc2o1 [Example 25, (S)-N-(4-fluoro-2-methylbenzo[d]oxa-zol-6-yl)-6-(hexa-hydropyrrolo[1,2-a]pyrazin-2-(1H)-yl)nicotinamide]	0.382 µM	0.5694 µM	1.6652
Cc1cn2cc(NC(=O)c3cnc(N4CCNCC4)cc3OCC(F)(F)F)cc(F)c2n1 [Example 71, N-(8-fluoro-2-methylimidazo[1,2-a]pyridin-6-yl)-6-(piperazin-1-yl)-4-(2,2,2-trifluoro-ethoxy)nicotinamide]	0.077 µM	0.4077 µM	1.4815
Cc1cn2cc(NC(=O)c3ccc(C4=CCNCC4)cc3F)cc(F)c2n1 [Example 61, 2-fIuoro-N-(8-fluoro-2-methyl-imidazo[1,2-a]-pyridin-6-yl)-4-(1,2,3,6-tetra-hydropyridin-4-yl)benzamide hydrochloride]	0.01 µM	–	1.7077
Cc1cn2cc(NC(=O)c3ccc(N4CCN[C@H](C)C4)cc3F)cc(F)c2n1 [Example 51, (R)-2-fIuoro-N-(8-fluoro-2-methyl-imidazo[1,2-a]-pyridin-6-yl)-4-(3-methylpiperazin-1-yl)benzamide hydrochloride]	0.0084 µM	0.0561 µM	1.7266
Cc1nc2c(F)cc(NC(=O)c3ccc(N4CCNC(C)C4)nc3)cc2o1 (racemic) [Example 27, rac-N-(4-Fluoro-2-methylbenzo-oxazol-6-yl)-6-(3-methylpiperazin-1-yl)nicotinamide]	0.0989 µM	0.3964 µM	1.6617
Cc1nc2c(F)cc(NC(=O)c3ccc(N4CCN(C)CC4)nc3)cc2o1 [Example 24, N-(4-fluoro-2-methylbenzo[d]-oxazol-6-yl)-6-(4-methylpiperazin-1-yl)nicotinamide]	0.649 µM	1.2616 µM	1.756
Cc1cn2cc(NC(=O)c3ccc(N4CCNCC4)cc3F)cc(F)c2n1 [Example 40, 2-fluoro-N-(8-fluoro-2-methyl-imidazo[1,2-a]-pyridin-6-yl)-4-(piperazin-1-yl)benzamide dihydrochloride]	0.0108 µM	0.0276 µM	1.7607
Cc1cn2cc(NC(=O)c3ccc(N4CCNCC4)nc3)cc(C(F)(F)F)c2n1 [Example 19, N-(2-methyl-8-(trifluoromethyl)-imidazo[1,2-a]-pyridin-6-yl)-6-(piperazin-1-yl)-nicotinamide]	0.267 µM	1.3818 µM	1.664
Cc1cn2cc(NC(=O)c3ccc(N4CCNCC4)nc3)ccc2n1 [Example 14, N-(2-methyl-imidazo[1,2-a]-pyridin-6-yl)-6-(piperazin-1-yl)nicotinamide]	0.231 µM	0.7944 µM	1.5912
Cc1nc2c(F)cc(NC(=O)c3ccc(N4CCN5CCC[C@@H]5C4)cc3F)cc2o1 [Example 34, (R)-2-fluoro-N-(4-fluoro-2-methyl-benzo[d]oxazol-6-yl)-4-(hexahydro-pyrrolo[1,2-a]-pyrazin-2(1H)-yl)benzamide]	0.328 µM	0.7793 µM	1.6527
Cc1cn2cc(NC(=O)c3ccc(N4CCNC(C)C4)cn3)nc2c(C)n1 (racemic) [Example 10, rac-N-(6,8-dimethyl-imidazo[1,2-a]-pyrazin-2-yl)-5-(3-methyl-piperazin-1-yl)picolinamide]	0.665 µM	0.329 µM	1.735
Cc1cn2cc(NC(=O)c3ccc(C4=CCNCC4)nc3)ccc2n1.Cl [Example 77, N-(2-methylimidazo[1,2-a]pyridin-6-yl)-6-(1,2,3,6-tetrahydropyridin-4-yl)nicotinamide hydrochloride]	0.0641 µM	0.2279 µM	1.6649
Cc1cn2cc(NC(=O)c3ccc(N4CCN[C@@H](C)C4)cc3)nc2c(C)n1 [Example 3, N-(6,8-Dimethyl-imidazo[1,2-a]-pyrazin-2-yl)-4-((S)-3-methyl-piperazin-1-yl)-benzamide]	0.552 µM	1.47 µM	1.7558
Cc1cn2cc(NC(=O)c3ccc(C4CCNCC4)nc3)cc(F)c2n1 [Example 79, N-(8-fluoro-2-methylimidazo[1,2-a]pyridin-6-yl)-6-(piperidin-4-yl)nicotinamide dihydrochloride]	0.0559 µM	0.2559 µM	1.6574
Cc1cn2cc(NC(=O)c3ccc(N4CCN(C)C(C)C4)nc3)ccc2n1 (racemic) [Example 82, rac-6-(3,4-dimethylpiperazin-1-yl)-N-(2-methylimidazo[1,2-a]pyridin-6-yl)nicotinamide]	0.371 µM	0.7698 µM	1.7306
Cc1cn2cc(NC(=O)c3ccc(N4CCN5CCC[C@H]5C4)cc3F)cc(C(F)(F)F)c2n1 [Example 35, (S)-2-fluoro-4-(hexahydro-pyrrolo[1,2-a]-pyrazin-2(1H)-yl)-N-(2-methyl-8-(trifluoro-methyl)imidazo-[1,2-a]pyridin-6-yl]benzamide]	0.202 µM	1.2664 µM	1.6275
Cc1cn2cc(NC(=O)c3ccc(N4CCNC(C)C4)nc3)cc(C(F)(F)F)c2n1 (racemic) [Example 20, rac-N-(2-methyl-8-(trifluoromethyl)-imidazo[1,2-a]-pyridin-6-yl)-6-(3-methyl-piperazin-1-yl)-nicotinamide]	0.489 µM	0.8065 µM	1.7789
Cc1nc2c(F)cc(NC(=O)c3ccc(N4CC(C)NC(C)C4)cc3)cc2o1 (centres unmarked) [Example 30, 4-(3,5-dimethyl-piperazin-1-yl)-N-(4-fluoro-2-methyl-benzo[d]oxazol-6-yl)benzamide]	0.41 µM	0.7612 µM	1.6734
Cc1cn2cc(NC(=O)c3ccc(N4CCN(C)CC4)cc3F)nc2c(C)n1 [Example 4, N-(6,8-dimethyl-imidazo[1,2-a]-pyrazin-2-yl)-2-fluoro-4-(4-methylpiperazin-1-yl)benzamide]	0.232 µM	0.5614 µM	1.769
CCN1CCN(c2ccc(C(=O)Nc3cn4cc(C)nc(C)c4n3)cn2)CC1 [Example 8, N-(6,8-dimethyl-imidazo[1,2-a]-pyrazin-2-yl)-6-(4-ethyl-piperazin-1-yl)nicotinamide]	0.201 µM	0.5175 µM	1.7677
Cc1cn2cc(NC(=O)c3ncc(N4CCNC(C)C4)cc3F)cc(F)c2n1 (racemic) [Example 48, rac-3-fluoro-N-(8-fluoro-2-methyl-imidazo[1,2-a]-pyridin-6-yl)-5-(3-methylpiperazin-1-yl)picolinamide hydrochloride]	0.0164 µM	0.0621 µM	1.738
Cc1cn2cc(NC(=O)c3ccc(N4CCN5CCC[C@H]5C4)cc3F)ccc2n1 [Example 31, (S)-2-fluoro-4-(hexahydropyrrolo[1,2-a]pyrazin-2(1H)-yl)-N-(2-methylimidazo[1,2-a]pyridin-6-yl)benzamide]	0.119 µM	0.2746 µM	1.7849
